molecular target: T1, human CCR6 (Homo sapiens, UniProt P51684); test: FLIPR assay (inhibition of CCL20-induced calcium signal); assay type: cell-based; conditions: HEK-293 cells expressing human CCR6; mean values where determined several times; read-out: FLIPR IC50
T1 construct: expressed in transfected cells; host or cells: HEK-293
T1 sequence (P51684 1-374): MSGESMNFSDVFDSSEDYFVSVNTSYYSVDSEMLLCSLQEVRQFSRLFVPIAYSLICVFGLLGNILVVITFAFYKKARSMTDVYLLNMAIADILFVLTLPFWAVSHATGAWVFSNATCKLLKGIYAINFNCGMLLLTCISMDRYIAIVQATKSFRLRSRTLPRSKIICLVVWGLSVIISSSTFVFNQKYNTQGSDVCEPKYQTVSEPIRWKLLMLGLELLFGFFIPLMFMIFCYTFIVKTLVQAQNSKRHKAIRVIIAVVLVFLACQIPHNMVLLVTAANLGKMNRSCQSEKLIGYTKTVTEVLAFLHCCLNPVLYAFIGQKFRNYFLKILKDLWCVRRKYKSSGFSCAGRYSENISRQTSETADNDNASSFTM
Method in brief: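 Dye-loaded HEK-293 cells expressing human CCR6 were preincubated with compound for 30 min at room temperature in the dark, then challenged with 10 nM CCL20 (final). Fluorescence was tracked on FLIPR, and baseline-subtracted peak emission over base after agonist addition gave inhibition dose-response curves for IC50.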

In order of falling IC50:
1. CC(=O)NC(C)(C)C#Cc1cc([C@@](O)(c2ccc(C(C)C)cc2)C2(C)CN(C)C2)cnn1 [Example 663]  992 nM
2. CC(C)c1ccc([C@](O)(c2cncc(C#C[C@]3(O)CCN(C)C3=O)c2)C2(C)CN(C)C2)cc1 [Example 609]  656 nM
3. CC(C)c1ccc([C@](O)(c2cncc(CCC(C)(C)N3CCOC3=O)c2)C2(C)CN(C)C2)cc1 [Example 638]  509 nM
4. CC(=O)N1CCC(C2CC(=O)N(c3cc([C@@](O)(c4ccc(C(C)C)cc4)C4(C)CN(C)C4)cnn3)C2)CC1 (stereo partly drawn) [Example 680, 4-(1-Acetyl-piperidin-4-yl)-1-{5-[(R)-(1,3-dimethyl-azetidin-3-yl)-hydroxy-(4-isopropyl-phenyl)-methyl]-pyridazin-3-yl}-pyrrolidin-2-one]  428 nM
5. CC(C)c1ccc([C@](O)(c2cncc(C#C[C@@]3(O)CCN(C)C3=O)c2)C2(C)CN(C)C2)cc1 [Example 610]  426 nM
6. CCC1([C@](O)(c2ccc(OC(F)(F)F)cc2)c2cncc(C#CC(C)(O)c3cccc(C)n3)c2)CN(C)C1 (some centres unmarked) [Example 659]  344 nM
7. CC(=O)N1CCC(C#Cc2cc([C@@](O)(c3ccc(C(C)C)cc3)C3(C)CN(C)C3)cnn2)CC1 [Example 662]  331 nM
8. CC(C)c1ccc([C@](O)(c2cnnc(N3CC4OCCC4C3=O)c2)C2(C)CN(C)C2)cc1 (stereo partly drawn) [Example 681, 5-{5-[(R)-(1,3-Dimethyl-azetidin-3-yl)-hydroxy-(4-isopropyl-phenyl)-methyl]-pyridazin-3-yl}-hexahydro-furo[2,3-c]pyrrol-4-one]  281 nM
9. CC(=O)N1CCC[C@]1(C)CCc1cncc([C@@](O)(c2ccc(C(C)C)cc2)C2(C)CN(C)C2)c1 [Example 642]  277 nM
10. CC(=O)NC(C)(C)C#Cc1cncc([C@@](O)(c2ccc(C(C)C)cc2)C2(C)CN(C)C2)c1 [Example 621]  235 nM
11. CC(C)c1ccc([C@](O)(c2cncc(N3CC(c4ccc(C(F)(F)F)nc4)CC3=O)c2)C2(C)CN(C)C2)cc1 (some centres unmarked) [Example 675]  227 nM
12. CC(C)c1ccc([C@](O)(c2cnnc(C#CC(C)(C)N3CCCC3=O)c2)C2(C)CN(C)C2)cc1 [Example 664]  211 nM
13. Cc1cccc(C(C)(O)C#Cc2cncc([C@@](O)(c3ccc(C(F)(F)F)cc3)C3(C)CN(C)C3)c2)n1 (some centres unmarked) [Example 656]  208 nM
14. Cc1ccc(C2CC(=O)N(c3cncc([C@@](O)(c4ccc(C(C)C)cc4)C4(C)CN(C)C4)c3)C2)cn1 (some centres unmarked) [Example 673]  199 nM
15. CC(C)c1ccc([C@](O)(c2cncc(C#CC(C)(O)c3nccn3C)c2)C2(C)CN(C)C2)cc1 (some centres unmarked) [Example 649]  185 nM
16. Cc1ncc(C2CC(=O)N(c3cncc([C@@](O)(c4ccc(C(C)C)cc4)C4(C)CN(C)C4)c3)C2)s1 (some centres unmarked) [Example 672]  172 nM
17. CC(C)c1ccc([C@](O)(c2cncc(CCC(C)(C)N3CCN(C)C3=O)c2)C2(C)CN(C)C2)cc1 [Example 640]  169 nM
18. CC(C)c1ccc([C@](O)(c2cncc(N3CC(c4cnn(C(F)F)c4)CC3=O)c2)C2(C)CN(C)C2)cc1 (some centres unmarked) [Example 678]  156 nM
19. CC(C)c1ccc([C@](O)(c2cncc(CCC(C)(O)c3ccn(C4CC4)n3)c2)C2(C)CN(C)C2)cc1 (some centres unmarked) [Example 644]  147 nM
20. Cc1cnc(C(C)(O)CCc2cncc([C@@](O)(c3ccc(C(C)C)cc3)C3(C)CN(C)C3)c2)cn1 (some centres unmarked) [Example 646]  129 nM
21. Cc1nccc(C(C)(O)CCc2cncc([C@@](O)(c3ccc(C(C)C)cc3)C3(C)CN(C)C3)c2)n1 (some centres unmarked) [Example 645]  110 nM
22. CC(C)c1ccc([C@](O)(c2cncc(N3CC(c4cnn(C)c4)CC3=O)c2)C2(C)CN(C)C2)cc1 (some centres unmarked) [Example 676]  108 nM
23. CC(=O)N1CCC(CCc2cncc([C@@](O)(c3ccc(C(C)C)cc3)C3(C)CN(C)C3)c2)CC1 [Example 636]  107 nM
24. Cc1nccc(C(C)(O)C#Cc2cncc([C@@](O)(c3ccc(C(C)C)cc3)C3(C)CN(C)C3)c2)n1 (some centres unmarked) [Example 616]  102 nM
25. Cc1cccc(C(C)(O)C#Cc2cncc([C@@](O)(c3ccc(C(C)C)cc3)C3(C)CN(CC(F)F)C3)c2)n1 (some centres unmarked) [Example 668]  101 nM
26. CC(C)c1ccc([C@](O)(c2cncc(CCC(C)(C)N3CCCC3=O)c2)C2(C)CN(C)C2)cc1 [Example 639]  96.6 nM
27. CCc1ccc([C@](O)(c2cncc(C#CC(C)(O)c3cccc(C)n3)c2)C2(C)CN(C)C2)cc1 (some centres unmarked) [Example 657]  86.6 nM
28. Cc1cccc(C(C)(O)C#Cc2cncc([C@@](O)(c3ccc(C(C)(C)C)cc3)C3(C)CN(C)C3)c2)n1 (some centres unmarked) [Example 658]  86.6 nM
29. Cc1cccc(C(C)(O)C#Cc2cncc([C@@](O)(c3ccc(CC(F)(F)F)cc3)C3(C)CN(C)C3)c2)n1 (some centres unmarked) [Example 660]  82.4 nM
30. Cc1ncc(C(C)(O)CCc2cncc([C@@](O)(c3ccc(C(C)C)cc3)C3(C)CN(C)C3)c2)s1 (some centres unmarked) [Example 647]  76.3 nM
31. CC(C)c1ccc([C@](O)(c2cncc(C#CC3(O)CCOc4cccnc43)c2)C2(C)CN(C)C2)cc1 (some centres unmarked) [Example 611]  74.9 nM
32. CC(C)c1ccc([C@](O)(c2cncc(C#CC(C)(O)c3cc(C4CC4)ncn3)c2)C2(C)CN(C)C2)cc1 (some centres unmarked) [Example 619]  68.8 nM
33. CC(C)c1ccc([C@](O)(c2cncc(CCC(C)(C)N3CCNC3=O)c2)C2(C)CN(C)C2)cc1 [Example 641]  67 nM
34. CC(=O)N1CCC(COc2cncc([C@@](O)(c3ccc(C(C)C)cc3)C3(C)CN(C)C3)c2)CC1 [Example 669, 1-(4-{5-[(R)-(1,3-Dimethyl-azetidin-3-yl)-hydroxy-(4-isopropyl-phenyl)-methyl]-pyridin-3-yloxymethyl}-piperidin-1-yl)-ethanone]  62.1 nM
35. CC(C)c1ccc([C@](O)(c2cncc(C#CC3(O)C(=O)N(C)c4ccccc43)c2)C2(C)CN(C)C2)cc1 (some centres unmarked) [Example 612]  58.5 nM
36. Cc1cccc(C(C)(O)C#Cc2cncc([C@@](O)(c3ccc(C4(C)CC4)cc3)C3(C)CN(C)C3)c2)n1 (some centres unmarked) [Example 655]  55 nM
37. Cc1cccc(C(C)(O)C#Cc2cncc([C@@](O)(c3ccc(C(C)C)cc3)C3(F)CN(C)C3)c2)n1 (some centres unmarked) [Example 661]  54.3 nM
38. Cc1cnc(C(C)(O)C#Cc2cncc([C@@](O)(c3ccc(C(C)C)cc3)C3(C)CN(C)C3)c2)cn1 (some centres unmarked) [Example 617]  53.5 nM
39. Cc1cccc(C(C)(O)C#Cc2cncc([C@@](O)(c3ccc(C(C)C)cc3)C3(C)CN(CCO)C3)c2)n1 (some centres unmarked) [Example 667]  52.4 nM
40. Cc1cc(C(C)(O)C#Cc2cncc([C@@](O)(c3ccc(C(C)C)cc3)C3(C)CN(C)C3)c2)on1 (some centres unmarked) [Example 648]  46.6 nM
41. CC(C)c1ccc([C@](O)(c2cncc(CCC(C)(O)C(F)(F)F)c2)C2(C)CN(C)C2)cc1 (some centres unmarked) [Example 637]  46.3 nM
42. Cc1cccc(C(C)(O)C#Cc2cncc([C@@](O)(c3ccc(C4(C(F)(F)F)CC4)cc3)C3(C)CN(C)C3)c2)n1 (some centres unmarked) [Example 654]  46.2 nM
43. Cc1cccc(C(C)(O)C#Cc2cncc([C@@](O)(c3ccc(C(C)C)cc3)C3(C)CN(C4CC4)C3)c2)n1 (stereo partly drawn) [Example 670, 4-{5-[(R)-(1-Cyclopropyl-3-methyl-azetidin-3-yl)-hydroxy-(4-isopropyl-phenyl)-methyl]-pyridin-3-yl}-2-(6-methyl-pyridin-2-yl)-but-3-yn-2-ol]  42.8 nM
44. CC(C)c1ccc([C@](O)(c2cncc(C#CC(C)(O)c3cc(C(F)F)ncn3)c2)C2(C)CN(C)C2)cc1 (some centres unmarked) [Example 633]  42.5 nM
45. CC(C)c1ccc([C@](O)(c2cncc(C#CC3(c4ccccn4)CC3)c2)C2(C)CN(C)C2)cc1 [Example 634]  40.6 nM
46. Cc1cccc(C(C)(O)C#Cc2cncc([C@@](O)(c3ccc(C(C)C)cc3)C3(C)CN(C(C)C)C3)c2)n1 (some centres unmarked) [Example 665]  40.4 nM
47. CC(C)c1ccc([C@](O)(c2cncc(N3CC(c4cccc(C(C)C)n4)CC3=O)c2)C2(C)CN(C)C2)cc1 (some centres unmarked) [Example 674]  25.9 nM
48. Cc1ncc(C(C)(O)C#Cc2cncc([C@@](O)(c3ccc(C(C)C)cc3)C3(C)CN(C)C3)c2)s1 (some centres unmarked) [Example 618]  23.3 nM
49. Cc1cc(C2(C#Cc3cncc([C@@](O)(c4ccc(C(C)C)cc4)C4(C)CN(C)C4)c3)CC2)ncn1 [Example 635]  23.2 nM
50. CC(C)c1ccc([C@](O)(c2cncc(CCC(C)(O)c3n[nH]c4ccccc34)c2)C2(C)CN(C)C2)cc1 (some centres unmarked) [Example 643]  16.9 nM
51. CC(C)c1ccc([C@](O)(c2cncc(C#CC(C)(O)c3cccn3C)c2)C2(C)CN(C)C2)cc1 (some centres unmarked) [Example 651]  16.1 nM
52. Cc1ccc(C(C)(O)C#Cc2cncc([C@@](O)(c3ccc(C(C)C)cc3)C3(C)CN(C)C3)c2)s1 (some centres unmarked) [Example 650]  15.9 nM
53. CC(C)c1ccc([C@](O)(c2cncc(C#CC(C)(O)c3cc(C(F)(F)F)ncn3)c2)C2(C)CN(C)C2)cc1 (some centres unmarked) [Example 632]  14.1 nM
54. CC(C)c1ccc([C@](O)(c2cncc(C#CC(C)(O)c3nn(C)c4ccccc34)c2)C2(C)CN(C)C2)cc1 (some centres unmarked) [Example 614]  12.6 nM
55. CC(C)c1ccc([C@](O)(c2cncc(C#CC(C)(O)c3n[nH]c4ccccc34)c2)C2(C)CN(C)C2)cc1 (some centres unmarked) [Example 613]  11.1 nM
56. CC(C)c1ccc([C@](O)(c2cnnc(N3CC(c4cccc(C(C)C)n4)CC3=O)c2)C2(C)CN(C)C2)cc1 (stereo partly drawn) [Example 682, 1-{5-[(R)-(1,3-Dimethyl-azetidin-3-yl)-hydroxy-(4-isopropyl-phenyl)-methyl]-pyridazin-3-yl}-4-(6-isopropyl-pyridin-2-yl)-pyrrolidin-2-one]  7.98 nM

— US12617773B2, “Azetidin-3-ylmethanol derivatives as CCR6 receptor modulators” (Idorsia Pharmaceuticals Ltd, priority 2020, dated 2026)
